Source: PMC9693455, “Synthesis of Tetrasubstituted Phosphorus Analogs of Aspartic Acid as Antiproliferative Agents” (Molecules, 2022)

Tests used:
[1] = test system: SKOV3 (human ovarian carcinoma) cells; test: In vitro cytotoxicity (antiproliferative activity), CCK-8 assay, SKOV3; type: cell-based; settings: Homo sapiens, SK-OV-3, 48 h exposure, CCK-8
Procedure: (§1) In vitro cytotoxicity of the phosphorated aspartic acid derivatives was evaluated by testing their antiproliferative activities against several human cancer cell lines. Cell counting kit (CCK-8) assay was used for the evaluation of growth inhibition. […] In addition, trisubstituted aminophosphonate 9a (Imine precursor, R^1 = H, R^2 = P(O)(OMe)2) and tetrasubstituted aminophosphonate 18 (R^1 = Me, R^2 = P(O)(OMe)2) are used as templates in order to evaluate the effect of the substituents (Table 1).
(§2) Human epithelial lung carcinoma cells (A549) (ATCC® CCL-185™, ATCC, Manassas, VA, USA) were grown in Kaighn’s Modification of Ham’s F-12 Medium (ATCC® 30-2004™, ATCC, Manassas, VA, USA) and lung fibroblast cells (MRC5) (ATCC® CCL-171™, ATCC, Manassas, VA, USA) were grown in Eagle’s Minimum Essential Medium (EMEM, ATCC® 30-2003™, ATCC, Manassas, VA, USA). Epithelial ovary adenocarcinoma cells (SKOV3) (ATCC® HTB-77™, ATCC, Manassas, VA, USA) were grown in McCoy’s 5A medium (ATCC® 30-2007™, ATCC, Manassas, VA, USA). All of them were supplemented with 10% of fetal bovine serum (FBS) (Sigma-Aldrich, Madrid, Spain) and with 1% of NORMOCIN solution (Thermo Fisher, Waltham, MA, USA). Cells were incubated at 37 °C and 5% CO2 atmosphere, and were split every 3–4 days to maintain monolayer coverage. For the cytotoxicity experiments, the A549 and SKOV3 cells were seeded in 96-well plates at a density of 2.5–3 × 10^3 cells per well and incubated overnight to achieve 70% of confluence at the time of exposition to the cytotoxic compound.
(§3) Cells were exposed to different concentrations of the cytotoxic compounds and were incubated for 48 h. Then, 10 µL of cell counting kit-8 was added into each well for an additional two hours’ incubation at 37 °C. The absorbance of each well was determined by an Automatic Elisa Reader System (Thermo Scientific Multiskan FC Automatic Elisa Reader System, Thermo Scientific, Shanghai, China) at 450 nm wavelength.

[2] = test system: A549 (carcinomic human alveolar basal epithelial) cells; test: In vitro cytotoxicity (antiproliferative activity), CCK-8 assay, A549; type: cell-based; settings: Homo sapiens, A549, 48 h, 48 h exposure, CCK-8
Procedure: as §1, §2, §3

[3] = test system: MRC5 lung fibroblast cells; test: Selective toxicity, CCK-8 assay, non-malignant MRC5 lung fibroblasts; type: cell-based; settings: Homo sapiens; non-malignant MRC5 lung fibroblasts, 48 h exposure, CCK-8
Procedure: as §1, §2, §3

SMILES	IC50 [1] [µM]	IC50 [2] [µM]	IC50 [3] [µM]	melting point [°C]
CCOC(=O)CC(NS(=O)(=O)c1ccc(C)cc1)(c1ccc([N+](=O)[O-])cc1)P(=O)(OC)OC (stereo not shown) [7q, Ethyl 3-(dimethoxyphosphoryl)-3-((4-methylphenyl)sulfonamido)-3-(4-nitrophenyl)propanoate]	> 50	0.67 ± 0.06	> 50	129 to 130
CCOC(=O)CC(NS(=O)(=O)c1ccc(C)cc1)(c1ccc(Cl)s1)P(=O)(OC)OC (stereo not shown) [7r, Ethyl 3-(5-chlorothiophen-2-yl)-3-(dimethoxyphosphoryl)-3-((4-methylphenyl)sulfonamido)propanoate]	11.8 ± 0.6	1.04 ± 0.28	> 50	93 to 94
CCOC(=O)CC(NS(=O)(=O)c1ccc(C)cc1)(c1ccc(-c2ccccc2)cc1)P(=O)(OC)OC (stereo not shown) [7s, Ethyl 3-([1,1’-biphenyl]-4-yl)-3-(dimethoxyphosphoryl)-3-((4-methylphenyl)sulfonamido)propanoate]	17 ± 1.22	1.48 ± 0.4	> 50	112 to 113
COP(=O)(OC)C(CC(=O)OCc1ccccc1)(NS(=O)(=O)c1ccc(C)cc1)c1ccccc1 (stereo not shown) [13b, Benzyl 3-(dimethoxyphosphoryl)-3-((4-methylphenyl)sulfonamido)-3-phenylpropanoate]	> 50	5.2 ± 0.16	> 50	84 to 85
